This assay is described as follows: Three-year placebo-controlled study in overweight persons: Doppler sonographic maximal blood flow velocity in the Arteria dorsalis pedis as parameter of atherosclerosis. The assay is classed as in vivo, Patienten. To be noted: for MAXIMALE BLUTSTRÖMUNGSGESCHWINDIGK.: 2 x 3 mg tgl. oral, Arteria dorsalis pedis. The text has this: Es wurden 122 übergewichtige Personen ausgesucht, die im Mittel 25 % Übergewicht hatten. Diese Patienten gaben nach Aufklärung ihr Einverständnis, an dieser Studie über 3 Jahre teilzunehmen. Sie hatten bereits 5 bis 10 Versuche einer Gewichtsabnahme hinter sich, die alle […] verlaufen waren. Ein Diabetes mellitus war nach der Definition des WHO-Reports (Techn. Rep. Ser. 646, 1 bis 80, 1980) bei diesen Patienten ausgeschlossen. Sie wurden in zwei gleich starke Gruppen eingeteilt, so daß nach Alter sowie Ausmaß und Dauer des Übergewichts kein Unterschied bestand. Die Patienten wurden in halbjährlichen Abständen ambulant kontrolliert. Wie zu Beginn wurden bei diesen Kontrollen folgende Blutwerte gemessen: Blutsenkung, Blutbild, Nüchternblutzucker, IGTT, Gewicht, Cholesterin und Triglyzeride, Serumglutamat-Oxalat-Transaminase (SGOT), Serumglutamat-Pyruvat-Transaminase (SGPT). Damit wurden den Stoffwechsel beeinträchtigende Krankheiten ausgeschlossen. Als Parameter der Atherosklerose wurde die dopplersonographisch bestimmte maximale Blutströmungsgeschwindigkeit in der Arteria dorsalis pedis verwendet. Alle Patienten hatten eine schmerzfreie Gehstrecke von über 200 m, die Arteria dorsalis pedis war gut tastbar. Oszillographisch fand sich kein Anhalt für eine Mediasklerose. Das Vorliegen einer Neuropathie wurde mit den üblichen klinischen Methoden ausgeschlossen.
Die erste Gruppe erhielt 2 x 3 mg Captopril täglich, die zweite Gruppe entsprechend Placebo. Die Patienten hatten die Auflage, keine den Stoffwechsel beeinträchtigenden Medikamente wie z.B. Diuretika, Betablocker oder dergleichen einzunehmen. In beiden Gruppen schieden über den Zeitraum von 3 Jahren 28 Patienten aus verschiedenen Gründen aus. Die Gruppen veränderten sich dadurch jedoch nicht so sehr, daß sie statistisch nicht mehr auswertbar gewesen wären. […] Die Ergebnisse des Versuchs sind in der nachstehenden Tabelle 1 dargestellt. Tabelle I

With `C[C@H](CS)C(=O)N1CCC[C@H]1C(=O)O` [Captopril, 1-(2S)-3-Mercapto-2-methylpropionyl -L-prolin], the “MAXIMALE BLUTSTRÖMUNGSGESCHWINDIGK.” value reads like this: (1985 - 1 (start), Risikopatienten (Stoffwechselgesunde Übergewichtige), n=63) 13,6 ± 0,4 cm/s; (1986 - 2, Risikopatienten, n=60) 13,5 ± 0,3 cm/s; (1987 - 2, Risikopatienten, n=54) 13,4 ± 0,2 cm/s; (1988 - 1 (after 3 years), Risikopatienten, n=48) 13,5 ± 0,2 cm/s. Moreover, for the setting “nach 3 Jahren, versus Placebo, 2 x 3 mg Captopril täglich, p 0,05, Student's t-Test”, the “Abfall der maximalen Blutströmungsgeschwindigkeit” value was “signifikant geringerer Abfall”.

The values are drawn from patent EP0411395A2, “Use of ACE inhibitors for atherosclerosis-prophylaxis” (THERA PATENT-VERWALTUNGS-GmbH, priority 1989, dated 1991).
